Data: patent US20250154169A1, “COMPOUNDS AND METHODS FOR MODULATING SPLICING” (REMIX THERAPEUTICS INC., priority 2021, published 2025)
Where two headings read alike, the source gives them in different places.

How the values were obtained:
[1] = tested on: HTT mRNA; assay: Splicing RT-qPCR assay, HTT canonical (CJ) and alternative (AJ) junction mRNA; format: cell-based, human; conditions: Homo sapiens, A673 or K562 cells, 24 hours compound treatment; for IC50: 24 h, read-out: HTT CJ (IC50, decrease in canonical junction mRNA); for AC50: read-out: HTT AJ (AC50, increase in alternative junction mRNA)
Method: (§1) Compounds described herein were used to modulate RNA transcript abundance in cells. The expression of a target mRNA was measured by detecting the formation of an exon-exon junction in the canonical transcript (CJ). A compound mediated exon-inclusion event was detected by observing an increase in formation of a new junction with an alternative exon (AJ). Real-time qPCR assays were used to detect these splicing switches and interrogate the potency of various compounds towards different target genes. A high-throughput real time quantitative PCR (RT-qPCR) assay was developed to measure these two isoforms of the mRNA (CJ and AJ) for exemplary genes, such as HTT, SMN2, and MYB, together with a control housekeeping gene, GAPDH or GUSB or PPIA, used for normalization. Briefly, the A673 or K562 cell line was treated with various compounds described herein (e.g., compounds of Formula (I)). After treatment, the levels of the HTT, MYB, or SMN2 mRNA targets were determined from each sample of cell lysate by cDNA synthesis followed by qPCR.
(§2) • Cells-to-CT 1-step kit: ThermoFisher A25602, Cells-to-CT lysis reagent: ThermoFisher 4391851C, TaqMan™ Fast Virus 1-Step Master Mix: ThermoFisher 4444436 • GAPDH: VIC-PL, ThermoFisher 4326317E (Assay: Hs99999905_m1)—used for K562/suspension cell lines • GUSB: VIC-PL, ThermoFisher 4326320E (Assay: Hs99999908_m1)—used for K562/suspension cell lines • PPIA: VIC-PL, ThermoFisher 4326316E (Assay: Hs99999904_m1)—used for A673/adherent cell lines
(§3) The A673 cell line was cultured in DMEM with 10% FBS. Cells were diluted with full growth media and plated in a 96-well plate (15,000 cells in 100 ul media per well). The plate was incubated at 37° C. with 5% CO2 for 24 hours to allow cells to adhere. An 11-point 3-fold serial dilution of the compounds was made in DMSO then diluted in media in an intermediate plate. Compounds were transferred from the intermediate plate to the cell plate with the top dose at a final concentration of 10 uM in the well. Final DMSO concentration was kept at or below 0.25%. The cell plate was returned to the incubator at 37° C. with 5% CO2 for an additional 24 hours.
(§4) The K562 cell line was cultured in IMDM with 10% FBS. For K562, cells were diluted with full growth media and plated in either a 96-well plate (50,000 cells in 50 uL media per well) or a 384-well plate (8,000-40,000 cells in 45 uL media per well). An 11-point 3-fold serial dilution of the compounds were made in DMSO then diluted in media in an intermediate plate. Compound was transferred from the intermediate plate to the cell plate with the top dose at a final concentration of 10 uM in the well. Final DMSO concentration was kept at or below 0.25%. Final volume was 100 uL for 96-well plate and 50 uL for 384-well plate. The cell plate was then placed in an incubator at 37° C. with 5% CO2 for 24 hours.
(§5) The cells were then gently washed with 50 uL-100 uL cold PBS before proceeding to addition of lysis buffer. 30 uL-50 uL of room temperature lysis buffer with DNAse I (and optionally RNAsin) was added to each well. Cells were shaken/mixed thoroughly at room temperature for 5-10 minutes for lysis to take place and then 3 uL-5 uL of room temperature stop solution was added and wells were shaken/mixed again. After 2-5 minutes, the cell lysate plate was transferred to ice for RT-qPCR reaction setup. The lysates could also be frozen at −80° C. for later use.
(§6) In some cases, a direct lysis buffer was used. An appropriate volume of 3× lysis buffer (10 mM Tris, 150 mM NaCl, 1.5%-2.5% Igepal and 0.1-1 U/uL RNAsin, pH 7.4) was directly added to either K562 or A673 cells in media and mixed by pipetting 3 times. The plates were then incubated at room temperature with shaking/rocking for 20-50 minutes to allow for lysis to take place. After this time, the cell lysate plate was transferred to ice to set up for the RT-qPCR reactions. The lysates could also be frozen at −80° C. for later use. […]

[2] = tested on: MYB mRNA; assay: Splicing RT-qPCR assay, MYB canonical (CJ) and alternative (AJ) junction mRNA; format: cell-based, human; conditions: A673 or K562 cells, 24 hours compound treatment, RT-qPCR; for AC50: read-out: MYB AJ (AC50, increase in alternative junction mRNA); for IC50: read-out: MYB CJ (IC50, decrease in canonical junction mRNA)
Method: as §1, §2, §3, §4, §5, §6

| SMILES | IC50 [1] [nM] | AC50 [1] [nM] | AC50 ([2]; Homo sapiens, 24 h) [nM] | IC50 ([2]; Homo sapiens, 24 h) [nM] | AC50 [2] [nM] | IC50 [2] [nM] |
| --- | --- | --- | --- | --- | --- | --- |
| CCNC1CCN(c2ccc(C(=O)Nc3cc(F)c4nc(C)cn4c3)c3nn(CC)cc23)C1 (stereo in doubt) [Compound 399, (S)-2-ethyl-4-(3-(ethylamino)pyrrolidin-1-yl)-N-(8-fluoro-2-methylimidazo[1,2-a]pyridin-6-yl)-2H-indazole-7-carboxamide] | > 10000 | > 10000 | 100 to 1000 | 100 to 1000 |  |  |
| CCNC1CCN(c2ccc(C(=O)Nc3cc(F)c4nc(C)cn4c3)c3nn(CC)cc23)C1 (stereo in doubt) [Compound 400, (R)-2-ethyl-4-(3-(ethylamino)pyrrolidin-1-yl)-N-(8-fluoro-2-methylimidazo[1,2-a]pyridin-6-yl)-2H-indazole-7-carboxamide] | > 10000 | > 10000 | < 100 | < 100 |  |  |
| Cc1cn2cc(NC(=O)c3ccc(N4CCc5[nH]ccc5C4)c4cn(C)nc34)cc(F)c2n1 [Compound 390, N-{8-fluoro-2-methylimidazo[1,2-a]pyridin-6-yl}-2-methyl-4-{1H,4H,6H,7H-pyrrolo[3,2-c]pyridin-5-yl}indazole-7-carboxamide] | > 10000 | > 10000 | > 10000 | > 10000 |  |  |
| Cc1cn2cc(NC(=O)c3ccc(N4CCNCC4)c4cn(C5CCC5)nc34)cc(F)c2n1 [Compound 391, 2-cyclobutyl-N-{8-fluoro-2-methylimidazo[1,2-a]pyridin-6-yl}-4-(piperazin-1-yl) indazole-7-carboxamide] | > 10000 | 1000 to 10000 | 100 to 1000 | < 100 |  |  |
| C=CCn1cc2c(N3CCNCC3)ccc(C(=O)Nc3cc(F)c4nc(C)cn4c3)c2n1 [Compound 392, N-{8-fluoro-2-methylimidazo[1,2-a]pyridin-6-yl}-4-(piperazin-1-yl)-2-(prop-2-en-1-yl) indazole-7-carboxamide] | 1000 to 10000 | 1000 to 10000 | < 100 | < 100 |  |  |
| CCn1cc2c(N3CC[C@@H](NC)C3)ccc(C(=O)Nc3cc(F)c4nc(C)cn4c3)c2n1 [Compound 393, (R)-2-ethyl-N-(8-fluoro-2-methylimidazo[1,2-a]pyridin-6-yl)-4-(3-(methylamino)pyrrolidin-1-yl)-2H-indazole-7-carboxamide] | > 10000 | > 10000 |  |  | 100 to 1000 | 100 to 1000 |
| CCn1cc2c(N3CCC4(CCN4)CC3)ccc(C(=O)Nc3cc(F)c4nc(C)cn4c3)c2n1 [Compound 394, 4-{1,7-diazaspiro[3.5]nonan-7-yl}-2-ethyl-N-{8-fluoro-2-methylimidazo[1,2-a]pyridin-6-yl}indazole-7-carboxamide] | 1000 to 10000 | 1000 to 10000 | 100 to 1000 | 100 to 1000 |  |  |
| CCn1cc2c(N3CCC(N(C)C)CC3)ccc(C(=O)Nc3cc(F)c4nc(C)cn4c3)c2n1 [Compound 395, 4-[4-(dimethylamino)piperidin-1-yl]-2-ethyl-N-{8-fluoro-2-methylimidazo[1,2-a]pyridin-6-yl}indazole-7-carboxamide] | 1000 to 10000 | 1000 to 10000 | < 100 | < 100 |  |  |
| CCNC1CCN(c2ccc(C(=O)Nc3cc(F)c4nc(C)cn4c3)c3nn(CC)cc23)C1 (centres unmarked) [Compound 396, 2-ethyl-4-[3-(ethylamino)pyrrolidin-1-yl]-N-{8-fluoro-2-methylimidazo[1,2-a]pyridin-6-yl}indazole-7-carboxamide] | > 10000 | > 10000 | < 100 | 100 to 1000 |  |  |
| Cc1cn2cc(NC(=O)c3ccc(N4CCC(N)(CF)CC4)c4cn(C)nc34)cc(F)c2n1 [Compound 397] | 1000 to 10000 | 1000 to 10000 | 100 to 1000 | 100 to 1000 |  |  |
| CCn1cc2c(N3CCC(NC4CC4)C3)ccc(C(=O)Nc3cc(F)c4nc(C)cn4c3)c2n1 (centres unmarked) [Compound 398, 4-[3-(cyclopropylamino)pyrrolidin-1-yl]-2-ethyl-N-{8-fluoro-2-methylimidazo[1,2-a]pyridin-6-yl}indazole-7-carboxamide] | > 10000 | > 10000 | 100 to 1000 | 100 to 1000 |  |  |
| CCn1cc2c(N3CCC4(CC3)CCN4C)ccc(C(=O)Nc3cc(F)c4nc(C)cn4c3)c2n1 [Compound 401, 2-ethyl-N-(8-fluoro-2-methylimidazo[1,2-a]pyridin-6-yl)-4-(1-methyl-1,7-diazaspiro[3.5]nonan-7-yl)-2H-indazole-7-carboxamide 2,2,2-trifluoroacetate] | 100 to 1000 | 100 to 1000 | < 100 | < 100 |  |  |
| Cc1cn2cc(NC(=O)c3ccc(N4CCC(N)CC4)c4cn(C)nc34)cc(F)c2n1 [Compound 402, 4-(4-aminopiperidin-1-yl)-N-{8-fluoro-2-methylimidazo[1,2-a]pyridin-6-yl}-2-methylindazole-7-carboxamide] | 100 to 1000 | 100 to 1000 | < 100 | < 100 |  |  |
| CCn1cc2c(N3CCNC(CO)C3)ccc(C(=O)Nc3cc(F)c4nc(C)cn4c3)c2n1 (centres unmarked) [Compound 403, 2-ethyl-N-{8-fluoro-2-methylimidazo[1,2-a]pyridin-6-yl}-4-[3-(hydroxymethyl)piperazin-1-yl]indazole-7-carboxamide] | 1000 to 10000 | 1000 to 10000 | 100 to 1000 | 100 to 1000 |  |  |
| Cc1nc2c(C)nc(NC(=O)c3ccc(N4CCNCC4)c4cn(C)nc34)cc2o1 [Compound 405, N-{2,4-dimethyl-[1,3]oxazolo[4,5-c]pyridin-6-yl}-2-methyl-4-(piperazin-1-yl) indazole-7-carboxamide] | 1000 to 10000 | 1000 to 10000 | 100 to 1000 | < 100 |  |  |
| Cn1cc2c(N3CCNCC3)ccc(C(=O)Nc3cc(F)c4nc(CO)oc4c3)c2n1 [Compound 406, N-[4-fluoro-2-(hydroxymethyl)-1,3-benzoxazol-6-yl]-2-methyl-4-(piperazin-1-yl) indazole-7-carboxamide] | 100 to 1000 | 100 to 1000 | < 100 | < 100 |  |  |
| CCn1cc2c(N3CC[C@H](NC)C3)cc(F)c(C(=O)Nc3cc(F)c4nc(C)cn4c3)c2n1 [Compound 478, 2-ethyl-6-fluoro-N-{8-fluoro-2-methylimidazo[1,2-a]pyridin-6-yl}-4-[(3S)-3-(methylamino)pyrrolidin-1-yl]indazole-7-carboxamide; bis(trifluoroacetic acid)] | 1000 to 10000 | > 10000 | 100 to 1000 | < 100 |  |  |
